Measurements taken from patent publication US9833497B2, “Human originated EGF domain proteins and use of the same” (CHENGDU SOURCEBIO LIMITED-LIABILITY COMPANY, priority 2013, dated 2017).

Key:
Type in all cases: cell-based
Enterobacter cloacae = test: MIC against Gram-negative bacteria: Enterobacter cloacae; details: 96-well plate, 5×10^5 CFU/mL, 37° C., 10 h
Procedure, shortened: (§1)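 First, colonies from LB agar were grown in LB at 37° C, 185 rpm, to McFarland turbidity 0.5, then centrifuged and resuspended in fresh LB. Next, wells received 5×10^5 CFU/mL bacteria plus two-fold serially diluted EGF domain protein (triplicate). Finally, plates were shaken at 37° C and the no-growth concentration taken as MIC.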

Klebsiella pneumonia = test: MIC against Gram-negative bacteria: Klebsiella pneumonia; details: 96-well plate, 5×10^5 CFU/mL, 37° C., 10 h
Procedure, shortened: as §1

E. coli BL21 = test: MIC against Gram-negative bacteria: E. coli BL21; details: 96-well plate, 5×10^5 CFU/mL, 37° C., 10 h
Procedure, shortened: as §1

E. coli DH5α = test: Antibacterial activity: MIC and growth curve against E. coli DH5α in 96-well plate; details: minimal inhibitory concentration against E. coli DH5α; 96-well plate, 5×10^5 CFU/mL, 37° C., judged after 8 h
Procedure, shortened: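 MIC taken as lowest protein level with no bacterial growth, tracked by A600 every 30 min during 37 °C, 175 rpm culture. Two-fold protein series 50-12.5 μg/mL final, triplicate wells, against 5×10^5 CFU/mL of LB-washed mid-log cells.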

Proteus vulgaris = test: MIC against Gram-negative bacteria: Proteus vulgaris; details: 96-well plate, 5×10^5 CFU/mL, 37° C., 10 h
Procedure, shortened: as §1

Pseudomonas aeruginosa = test: MIC against Gram-negative bacteria: Pseudomonas aeruginosa; details: 96-well plate, 5×10^5 CFU/mL, 37° C., 10 h
Procedure, shortened: as §1

Aeromonas hydrophila = test: MIC against Gram-negative bacteria: Aeromonas hydrophila; details: 96-well plate, 5×10^5 CFU/mL, 37° C., 10 h
Procedure, shortened: as §1

Proteus mirabilis = test: MIC against Gram-negative bacteria: Proteus mirabilis; details: 96-well plate, 5×10^5 CFU/mL, 37° C., 10 h
Procedure, shortened: as §1

Citrobacter diversus = test: MIC against Gram-negative bacteria: Citrobacter diversus; details: 96-well plate, 5×10^5 CFU/mL, 37° C., 10 h
Procedure, shortened: as §1

Moraxella catarrhalis = test: MIC against Gram-negative bacteria: Moraxella catarrhalis; details: 96-well plate, 5×10^5 CFU/mL, 37° C., 10 h
Procedure, shortened: as §1

Serratia marcescens = test: MIC against Gram-negative bacteria: Serratia marcescens; details: 96-well plate, 5×10^5 CFU/mL, 37° C., 10 h
Procedure, shortened: as §1

Row | Substance | MIC against E. cloacae (Enterobacter cloacae) | MIC against K. pneumonia (Klebsiella pneumonia) | MIC against E. coli BL21 (E. coli BL21) | MIC (E. coli DH5α) | MIC against P. vulgaris (Proteus vulgaris) | MIC against P. aeruginosa (Pseudomonas aeruginosa) | MIC against A. hydrophila (Aeromonas hydrophila) | MIC against P. mirabilis (Proteus mirabilis) | MIC against C. diversus (Citrobacter diversus) | MIC against M. catarrhalis (Moraxella catarrhalis) | MIC against S. marcescens (Serratia marcescens)
1 | PRT533 (GTINSNLGYCQCKLHVEGPTCSRCKLLYWNLDKENPSGCSE; listed as Homo sapiens) | 50 µg/mL | 25 µg/mL | 25 µg/mL | 50 µg/mL | 25 µg/mL | 100 µg/mL | 25 µg/mL | 50 µg/mL | 12.5 µg/mL | 25 µg/mL | 12.5 µg/mL
2 | PRT534 (CKCHKAGTVSGTGECRQGDGDCHCKSHVGGDSCDTCEDGYFALEKSNYFGCQG; listed as Homo sapiens) | 50 µg/mL | 12.5 µg/mL | 12.5 µg/mL | 50 µg/mL | 50 µg/mL | 50 µg/mL | 12.5 µg/mL | 25 µg/mL | 50 µg/mL | 12.5 µg/mL | 25 µg/mL
3 | PRT535 (CQCDIGGALSSMCSGPSGVCQCREHVVGKVCQRPENNYYFPDLHH; listed as Homo sapiens) | 50 µg/mL | 12.5 µg/mL | 25 µg/mL | 12.5 µg/mL | 12.5 µg/mL | 50 µg/mL | 12.5 µg/mL | 50 µg/mL | 50 µg/mL | 12.5 µg/mL | 50 µg/mL
4 | PRT536 (CECHPTGATGPHCSPEGGQCPCQPNVIGRQCTRCATGHYGFPRCKP; listed as Homo sapiens) | 12.5 µg/mL | 50 µg/mL | 50 µg/mL | 12.5 µg/mL | 50 µg/mL | 12.5 µg/mL | 50 µg/mL | 12.5 µg/mL | 12.5 µg/mL | 50 µg/mL | 12.5 µg/mL
5 | PRT537 (CDCNGNSNECLDGSGYCVHCQRNTTGEHCEKCLDGYIGDSIRGAPQFCQP; listed as Homo sapiens) | 50 µg/mL | 25 µg/mL | 25 µg/mL | 50 µg/mL | 25 µg/mL | 12.5 µg/mL | 25 µg/mL | 12.5 µg/mL | 12.5 µg/mL | 25 µg/mL | 12.5 µg/mL
6 | PRT538 (CPCPLPHLANFAESCYRKNGAVRCICNENYAGPNCERCAPGYYGNPLLIGSTCKK; listed as Homo sapiens) | 25 µg/mL | 12.5 µg/mL | 12.5 µg/mL | 25 µg/mL | 12.5 µg/mL | 25 µg/mL | 12.5 µg/mL | 12.5 µg/mL | 25 µg/mL | 12.5 µg/mL | 50 µg/mL
7 | PRT539 (CDCSGNSDPNLIFEDCDEVTGQCRNCLRNTTGFKCERCAPGYYGDARIAKNCAV; listed as Homo sapiens) | 50 µg/mL | 25 µg/mL | 50 µg/mL | 12.5 µg/mL | 12.5 µg/mL | 12.5 µg/mL | 25 µg/mL | 50 µg/mL | 12.5 µg/mL | 25 µg/mL | 50 µg/mL
8 | PRT540 (CVCHGHADACDAKDPTDPFRLQCTCQHNTCGGTCDRCCPGFNQQPWKPATANSANECQS; listed as Homo sapiens) | 50 µg/mL | 12.5 µg/mL | 50 µg/mL | 12.5 µg/mL | 12.5 µg/mL | 12.5 µg/mL | 12.5 µg/mL | 25 µg/mL | 25 µg/mL | 50 µg/mL | 50 µg/mL
9 | PRT541 (CSCDLRGTLGGVAECQPGTGQCFCKPHVCGQACASCKDGFFGLDQADYFGCRS; listed as Homo sapiens) | 12.5 µg/mL | 50 µg/mL | 50 µg/mL | 12.5 µg/mL | 25 µg/mL | 100 µg/mL | 50 µg/mL | 12.5 µg/mL | 12.5 µg/mL | 50 µg/mL | 50 µg/mL
10 | PRT542 (CRCDIGGALGQSCEPRTGVCRC; listed as Homo sapiens) | 25 µg/mL | 50 µg/mL | 12.5 µg/mL | 25 µg/mL | 12.5 µg/mL | 25 µg/mL | 12.5 µg/mL | 50 µg/mL | 50 µg/mL | 12.5 µg/mL | 50 µg/mL
11 | PRT543 (CGCHEVGATGPTCEPFGGQCPCHAHVIGRDCSRCATGYWGFPNCRP; listed as Homo sapiens) | 12.5 µg/mL | 50 µg/mL | 50 µg/mL | 12.5 µg/mL | 50 µg/mL | 12.5 µg/mL | 50 µg/mL | 25 µg/mL | 25 µg/mL | 12.5 µg/mL | 25 µg/mL
12 | PRT544 (CDCGARLCDELTGQCICPPRTIPPDCLLCQPQTFGCHPLVGCEE; listed as Homo sapiens) | 12.5 µg/mL | 25 µg/mL | 25 µg/mL | 12.5 µg/mL | 12.5 µg/mL | 12.5 µg/mL | 12.5 µg/mL | 12.5 µg/mL | 12.5 µg/mL | 12.5 µg/mL | 12.5 µg/mL
13 | PRT545 (CNCSGPGIQELTDPTCDTDSGQCKCRPNVTGRRCDTCSPGFHGYPRCRP; listed as Homo sapiens) | 12.5 µg/mL | 25 µg/mL | 12.5 µg/mL | 12.5 µg/mL | 12.5 µg/mL | 12.5 µg/mL | 25 µg/mL | 12.5 µg/mL | 12.5 µg/mL | 12.5 µg/mL | 50 µg/mL
14 | PRT546 (CDCHEAGTAPGVCDPLTGQCYCKENVQGPKCDQCSLGTFSLDAANPKGCTR; listed as Homo sapiens) | 12.5 µg/mL | 50 µg/mL | 50 µg/mL | 12.5 µg/mL | 25 µg/mL | 12.5 µg/mL | 50 µg/mL | 12.5 µg/mL | 12.5 µg/mL | 50 µg/mL | 50 µg/mL
15 | PRT547 (CQCHGHSDRCLPGSGVCVDCQHNTEGAHCERCQAGFVSSRDDPSAPCVS; listed as Homo sapiens) | 25 µg/mL | 50 µg/mL | 12.5 µg/mL | 25 µg/mL | 12.5 µg/mL | 25 µg/mL | 12.5 µg/mL | 25 µg/mL | 25 µg/mL | 50 µg/mL | 25 µg/mL
16 | PRT548 (CPCPLSVPSNNFAEGCVLRGGRTQCLCKPGYAGASCERCAPGFFGNPLVLGSSCQP; listed as Homo sapiens) | 12.5 µg/mL | 25 µg/mL | 25 µg/mL | 12.5 µg/mL | 25 µg/mL | 50 µg/mL | 25 µg/mL | 12.5 µg/mL | 50 µg/mL | 25 µg/mL | 50 µg/mL
